# According to article PMC7802075 (ACS Infectious Diseases, 2020):
# Counter-ions that a name gives are not always drawn.
# Legend:
# [1] = system: BMDM uninfected macrophages, nitrite formation; assay: Nitric oxide assay (Griess) in uninfected macrophages; type: cell-based, mouse; conditions: serial dilutions, 48 h
# Procedure: The release of nitric oxide was measured in the culture supernatant by the Griess method, as described previously.[81] The absorbance was measured at 570 nm, and the nitrite concentration was determined using a standard curve of sodium nitrite (0 to 50 μM). The positive control was macrophages incubated with 1 μg mL^–1 LPS (Sigma-Aldrich, Brazil) and 10% conditioned medium of lymphocytes as a source of IFN. Negative controls were cells treated with DMSO and untreated cells.
# [2] = system: wild type Leishmania major promastigotes; type: cell-based
# [3] = system: L. amazonensis intracellular amastigotes in BMDM from C57BL/6 WT or P2X7R KO mice
# [4] = in vivo; cited from earlier work
# [5] = in vivo; cited from earlier work; remark: listed apart in the source
# [6] = in vivo; cited from earlier work; remark: listed apart in the source
compound,measurement,setting,value
"CN1CCC[C@@H]1CCO[C@](C)(c1ccccc1)c1ccc(Cl)cc1 [clemastine fumarate 1, clemastine fumarate]",nitrite formation (NO levels),[1],no significant effect
same,nitrite formation (NO levels),[1]; listed as clemastine,statistically non-significant
same,cell density,[2],no change in cell density
same,"effect of addition of extracellular ATP, P2X7R KO macrophages",[3],did not show any effect
same,oral LD50 (mouse),[4],730 mg.kg^–1
same,oral LD50 (rat),[5],3550 mg.kg^–1
same,volume of distribution,[6],9.5 ± 3.8 L kg^–1
